Each structure is given as a SMILES string.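 96-well plates; 48 h exposure; 5 concentrations. Endpoints by linear interpolation between flanking doses. Not reached: highest tested concentration assigned. At the GI50, growth is halved.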 Active and inactive are the calls of the source. Cut-off read from the data, not from the text of the source: active = GI50 up to about 1.1 µM and inactive = higher. Bounds are passed on as bounds.

Among the test systems are IGROV-1; NCI-H23; OVCAR-8; HCC 2998; CAKI-1; Malme-3M; OVCAR-4; Hs-578T; A549; LXFL 529; M14; MCF7; T47D; K562; SF-295; SN12C; SW-620; 786-0; HT-29; ACHN.
Holding throughout (test): NCI anticancer screen, dose series, 48 h

Turning to `CCCCCCCCCCCCC(=O)OC(c1cnco1)c1nc(C(O)CC(O)C(O)C(C)O)co1` (stereo not given), the GI50 with IGROV-1 was 0.339 µM (active); in the assay on NCI-H23 it was 0.336 µM (active); in the assay with OVCAR-8 it was 0.299 µM (active); in the assay on HCC 2998 it was 1.31 µM (inactive); in the assay on CAKI-1, 0.265 µM (active); in the assay with Malme-3M, 0.828 µM (active). Also, the GI50 was 1.3 µM (inactive) in the assay on OVCAR-4; 1.53 µM (inactive) with Hs-578T; 0.264 µM (active) in the assay on A549; 0.238 µM (active) in the assay with LXFL 529; 0.491 µM (active) with M14; 0.454 µM (active) in the assay on MCF7. Also, the GI50 in the assay with T47D was 4.71 µM (inactive); with K562 it was 0.21 µM (active); in the assay with SF-295 it was 0.467 µM (active); with SN12C, 1.78 µM (inactive); with SW-620, 0.114 µM (active); with 786-0, 0.217 µM (active). In addition, the GI50 with HT-29 is 0.351 µM (active); in the assay on ACHN, 1.45 µM (inactive).
Take `CCN(CC)CCNC(=O)c1ccc(C)c(OCc2ccccc2)c1[N+](=O)[O-]`: the GI50 with IGROV-1 was 62.8 µM (inactive); in the assay on NCI-H23, 54.3 µM (inactive); in the assay on OVCAR-8 it was > 100 µM (inactive); with HCC 2998 it was 28.8 µM (inactive); in the assay on CAKI-1, 20.7 µM (inactive); with Malme-3M it was 16.9 µM (inactive). For the same compound, the GI50 was 56.8 µM (inactive) in the assay with OVCAR-4; 28.6 µM (inactive) with Hs-578T; 44.8 µM (inactive) with A549; 18 µM (inactive) with LXFL 529; 17.8 µM (inactive) in the assay on M14; 22.3 µM (inactive) in the assay on MCF7. The GI50 is 20.7 µM (inactive) in the assay on T47D; 19.2 µM (inactive) in the assay on K562; 24.5 µM (inactive) with SF-295; 74.3 µM (inactive) in the assay with SN12C; 18.3 µM (inactive) in the assay with SW-620; 33.3 µM (inactive) with 786-0. For the same compound, the figures for the GI50 in the assay with HT-29 and in the assay on ACHN were 19.1 µM (inactive) and 56.8 µM (inactive), respectively.
As for `c1nc(N2CC2)c2cnn(C3CCCCO3)c2n1` (stereo not given), the GI50 in the assay with IGROV-1, with NCI-H23, with OVCAR-8, with HCC 2998, in the assay with CAKI-1 and in the assay on Malme-3M was > 100 µM (inactive) throughout. The GI50 in the assay with OVCAR-4, in the assay on Hs-578T, with A549, in the assay on LXFL 529, in the assay with M14 and in the assay with MCF7 was > 100 µM (inactive) each time. Also, the GI50 in the assay on T47D was > 100 µM (inactive); in the assay with K562, 36.6 µM (inactive); in the assay on SF-295, > 100 µM (inactive); in the assay with SN12C, > 100 µM (inactive); in the assay on SW-620, > 100 µM (inactive); in the assay on 786-0, > 100 µM (inactive). The GI50 with HT-29 and with ACHN was > 100 µM (inactive) each time.

(Values after ChEMBL document CHEMBL1201862, “PubChem BioAssay data set” (2004).)
